In one test the test system is AtTTM2. Briefly: Quantitative real-time PCR of AtTTM2 expression after SA, BTH or flg22 treatment. The class given is in vivo, Arabidopsis thaliana. The protocol: (§1) Arabidopsis (Arabidopsis thaliana accession Columbia), canola (Brassica napus var. Westar), and soybean (Glycine max var. Harasoy) plants were grown in Sunshine Mix at 22° C., 60% relative humidity (RH), and ˜140 μE m^−2 s^−1 with a 9h-photoperiod. 7-10 day-old Arabidopsis plants were infected with Hyaloperonospora arabidopsidis (Hpa). Spore counts of 1×10^5 conidiospores ml^−1, 8×10^5 cells ml^−1, and 2×10^5 cells ml^−1 were used for Noco2, Emco5, and Emwa1 isolates, respectively. Seedlings were then infected via drop inoculation and left at 16° C., >90% RH for 7-10 days before disease assessment. 4-week-old plants were infiltrated with 1×10^5 CFU ml^−1 of the bacterial pathogen, Pseudomonas syringae tomato DC3000 (AvrRps4) and bacterial growth was assessed at 0 and 3 days post infiltration.
(§2) RNA extraction was carried out using the TRIzol reagent (Life Technologies, Carlsbad, Calif.), according to the manufacturer's instructions. Reverse transcriptase (RT)-PCR was performed using cDNA generated by SuperScript II Reverse Transcriptase (Life Technologies, Carlsbad, Calif.) according to the manufacturer's instructions. Expression of PR1 was visualized by gel electrophoresis of samples after RT-PCR with PR1 primers (AtPR1-F, AtPR1-R).
(§3) Quantitative real-time PCR was performed using Fast SYBR Green Master Mix (Life Technologies, Carlsbad, Calif.). […]
In general terms: Quantitative PCR measures a nucleic acid by following its amplification.

For another test, the system named is PR1. The experiment in a line: Quantitative real-time PCR of PR1 gene expression after SA or BTH treatment. To be noted: Col wild type. Format: in vivo, Arabidopsis thaliana. The protocol: as §1, §2, §3
The subject of another test is BdTTM2. Briefly: Expression of TTM2 in Brachypodium distachyon after BTH treatment. The class given is in vivo. To be noted: 200 uM BTH, 48 hours. The protocol:
(§4) Tomato, Cucumber, Pepper and Petunia plants for BTH treatment were grown in Sunshine Mix at 22° C., 60% relative humidity, and approximately 140 uE m^−2 s^−1 with a 9-h photoperiod. Rice and Brachypodium distachyon plants for BTH treatment were grown in Rice Mix. tomato plants for Pseudomonas infection were grown in Sunshine Mix, at 22° C. 60% relative humidity, and natural light condition.
(§5) FIG. 26 illustrates expression of OsTTM2 in 4 week old rice (Oryza sativa) plant and BdTTM2 in the model monocotyledonous plant Brachypodium distachyon 48 hours after BTH (200 uM) treatment. Solution was sprayed with the addition of 0.025% (v/v) Silwet. Expression of both genes was suppressed similar to Arabidopsis TTM2.

A further test relates to BnTTM2a, BnTTM2b. Briefly: qPCR of TTM2 orthologues in canola after BTH treatment. The note with it: canola var. Westar, 200 μM BTH, 48hrs. The class given is in vivo, Brassica napus. The procedure: as §1
(§6) Quantitative real-time PCR was performed using Fast SYBR Green Master Mix (Life Technologies, Carlsbad, Calif.). The expression of Arabidopsis genes were normalized to the expression of AtEF1A (elongation factor1-alpha) while the expression of soybean and canola genes were normalized to GmEF1B (elongation factor1-beta) and BnUBC21 (ubiquitin conjugating enzyme21), respectively.
(§7) 7- to 10-day old Arabidopsis seedlings were treated with 100 μM SA or 200 μM BTH. […]

Another test concerns CaTTM2. Briefly: Expression of TTM2 in pepper after BTH treatment. To be noted: 4-5 week old pepper, 200 uM BTH, 48 hours. The class given is in vivo, Capsicum annuum. The procedure: as §4
FIG. 24b illustrates expression of CaTTM2 in approximately 4-5 week old pepper (Capsicum annuum) 48 hours after BTH (200 uM) treatment. Solution was sprayed with the addition of 0.025% (v/v) Silwet. Expression of the gene was suppressed similar to Arabidopsis TTM2.

A further test relates to GmTTM2a/b. Briefly: qPCR of TTM2 orthologues in soybean after BTH treatment. The note with it: soybean var. Harasoy, 200 μM BTH, 48hrs. The class given is in vivo, Glycine max. The procedure:
as §1, §6, §7

The next test relates to OsTTM2. The experiment in a line: Expression of TTM2 in rice after BTH treatment. The class given is in vivo, Oryza sativa. The note with it: 4 week old rice, 200 uM BTH, 48 hours. The procedure: as §4, §5
The next test concerns SITTM2A and B. Briefly: Expression of TTM2 in tomato after BTH treatment. The class given is in vivo, Solanum lycopersicum. To be noted: 4-5 week old tomato, 200 μM BTH, 48 hours. The procedure:
as §4
FIG. 23 illustrates expression of SITTM2A and B in approximately 4-5 week old tomato (Solanum lycopersicum) 48 hours after with and without BTH (200 μM) treatment. Solution was sprayed with the addition of 0.025% (v/v) Silwet. Expression of both genes was suppressed similar to Arabidopsis TTM2.

A further test relates to PhTTM2A and B. Briefly: Expression of TTM2 in Petunia after BTH treatment. Format: in vivo, Petunia hybrida. The note with it: 4-5 week old Petunia, 200 uM BTH, 48 hours. The protocol:
as §4
FIG. 25 illustrates expression of PhTTM2A and B in approximately 4-5 week old Petunia (Petunia hybrida) 48 hours after BTH (200 uM) treatment. Solution was sprayed with the addition of 0.025% (v/v) Silwet. Expression of both genes was suppressed similar to Arabidopsis TTM2.

The next test deals with CsTTM2. Briefly: Expression of TTM2 in cucumber after BTH treatment. The note with it: 4-5 week old cucumber, 200 uM BTH, 48 hours. The class given is in vivo, Cucumis sativus. The protocol:
as §4
FIG. 24a illustrates expression of CsTTM2 in approximately 4-5 week old cucumber (Cucumis sativus) 48 hours after BTH (200 uM) treatment. Solution was sprayed with the addition of 0.025% (v/v) Silwet. Expression of the gene was suppressed similar to Arabidopsis TTM2.

Take `O=C(O)c1ccccc1O` [SA, salicylic acid]: the “AtTTM2 down-regulation after SA treatment” value with AtTTM2 (Col wild type plants sprayed with 100 μM SA, 24h) was “more than 2 fold”. Moreover, the “PR1 gene expression after SA treatment” value in the test with PR1 (100 μM SA, 24h) is “increase in PR1 gene expression”.

On to `c1ccc2snnc2c1` [BTH, benzothiadiazole], for which, in the test with BdTTM2, the “Expression of BdTTM2 after BTH treatment” value is given as “suppressed”. The “Expression of BnTTM2a, BnTTM2b in response to BTH” value in the test on BnTTM2a, BnTTM2b was “similarly down-regulated”. For the same molecule, the “Expression of CaTTM2 after BTH treatment” value in the test on CaTTM2 was “suppressed”. Further, in the test on AtTTM2 (Col wild type, 200 μM BTH, 48h), the “AtTTM2 down-regulation after BTH treatment” value was “down-regulation was also observed”. In addition, the “Expression of GmTTM2a/b in response to BTH” value with GmTTM2a/b was “similarly down-regulated”. In addition, in the test on OsTTM2, the “Expression of OsTTM2 after BTH treatment” value is “suppressed”. Moreover, the “Expression of SITTM2A and B after BTH treatment” value in the test with SITTM2A and B is “suppressed”. The “PR1 gene expression after BTH treatment” value in the test on PR1 (200 μM BTH, 48h) is “increase in PR1 gene expression”. For the same molecule, the “Expression of PhTTM2A and B after BTH treatment” value in the test with PhTTM2A and B was “suppressed”. Further, the “Expression of CsTTM2 after BTH treatment” value with CsTTM2 was “suppressed”.

Values taken from patent US20170016019A1, “Plants Having Enhanced Pathogen Resistance and Methods of Modulating Pathogen Resistance in Plants” (The Governing Council of the University of Toronto, priority 2014, published 2017).
